US8207193B2 (priority 2006, dated 2012)

Target: human muscarinic acetylcholine M3 receptor (M3-ACh) (Homo sapiens, UniProt P20309)
Test: biochemical
Format: binding

Chain of human muscarinic acetylcholine M3 receptor (M3-ACh) (P20309 whole entry): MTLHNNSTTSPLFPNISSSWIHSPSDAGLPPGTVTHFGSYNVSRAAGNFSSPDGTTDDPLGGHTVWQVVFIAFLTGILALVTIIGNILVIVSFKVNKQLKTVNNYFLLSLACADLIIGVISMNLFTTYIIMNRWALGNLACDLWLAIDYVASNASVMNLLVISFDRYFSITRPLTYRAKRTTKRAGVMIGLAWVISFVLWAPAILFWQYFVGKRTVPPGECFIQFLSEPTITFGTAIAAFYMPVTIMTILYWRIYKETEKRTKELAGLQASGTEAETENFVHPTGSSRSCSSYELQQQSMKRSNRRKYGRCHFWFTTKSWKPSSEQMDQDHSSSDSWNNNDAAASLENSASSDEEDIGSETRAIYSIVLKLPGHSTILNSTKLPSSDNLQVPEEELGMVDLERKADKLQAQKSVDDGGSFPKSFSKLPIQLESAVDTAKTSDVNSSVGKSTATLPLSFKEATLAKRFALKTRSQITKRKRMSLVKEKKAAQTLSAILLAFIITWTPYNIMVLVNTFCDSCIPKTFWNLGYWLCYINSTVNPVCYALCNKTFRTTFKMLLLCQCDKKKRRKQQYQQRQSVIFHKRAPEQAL

O=C(C[N+]12CCC(CC1)[C@@H](OC(=O)C1(c3ccccc3)CCCCCC1)C2)Nc1cccnn1 [Example 17, (3R)-1-[2-Oxo-2-(pyridazin-3-ylamino)ethyl]-3-{[(1-phenylcycloheptyl)carbonyl]oxy}-1-azoniabicyclo[2.2.2]octane Bromide]
IC50 (M3 binding IC50): < 2 nM

COc1cccc(C[N+]23CCC(CC2)[C@@H](OC(=O)C2(c4ccccc4)CCCCCC2)C3)c1 [Example 10, (3R)-1-(3-Methoxybenzyl)-3-{[(1-phenylcycloheptyl)carbonyl]oxy}-1-azoniabicyclo[2.2.2]octane Bromide]
IC50 (M3 binding IC50): 2 to 10 nM
IC50 (pIC50): 3.16 nM

C[N+]12CCC(CC1)[C@@H](OC(=O)C1(c3ccccc3)CCCCCC1)C2 [Example 2, (3R)-1-Methyl-3-{[(1-phenylcycloheptyl)carbonyl]oxy}-1-azoniabicyclo[2.2.2]octane Iodide]
IC50 (M3 binding IC50): 2 to 10 nM
IC50 (pIC50): 3.16 nM
IC50 (pIC50 of cycloheptyl (C7) compound): 3.16 nM

O=C(C[N+]12CCC(CC1)[C@@H](OC(=O)C1(c3ccccc3)CCCCCC1)C2)N1CCCC1 [Example 14, (3R)-1-(2-Oxo-2-pyrrolidin-1-ylethyl)-3-{[(1-phenylcycloheptyl)carbonyl]oxy}-1-azoniabicyclo[2.2.2]octane Bromide]
IC50 (M3 binding IC50): 2 to 10 nM

O=C(O[C@H]1C[N+]2(CCOc3ccccc3)CCC1CC2)C1(c2ccccc2)CCCCCC1 [Example 11, (3R)-1-(2-Phenoxyethyl)-3-{[(1-phenylcycloheptyl)carbonyl]oxy}-1-azoniabicyclo[2.2.2]octane bromide]
IC50 (M3 binding IC50): < 2 nM

O=C(C[N+]12CCC(CC1)[C@@H](OC(=O)C1(c3ccccc3)CCCCCC1)C2)Nc1cccc(F)c1 [Example 22, (3R)-1-{2-[(3-Fluorophenyl)amino]-2-oxoethyl}-3-{[(1-phenylcycloheptyl)carbonyl]oxy}-1-azoniabicyclo[2.2.2]octane Bromide]
IC50 (M3 binding IC50): < 2 nM

Cc1cnc(NC(=O)C[N+]23CCC(CC2)[C@@H](OC(=O)C2(c4ccccc4)CCCCCC2)C3)cn1 [Example 33, (3R)-1-{2-[(5-Methylpyrazin-2-yl)amino]-2-oxoethyl}-3-{[(1-phenylcycloheptyl)carbonyl]oxy}-1-azoniabicyclo[2.2.2]octane Bromide]
IC50 (M3 binding IC50): < 2 nM

O=C(O[C@H]1C[N+]2(CC3(c4ccc(Cl)cc4)CC3)CCC1CC2)C1(c2ccccc2)CCCCCC1 [Example 32, (3R^5)-1-{[1-(4-Chlorophenyl)cyclopropyl]methyl}-3-{[(1-phenylcycloheptyl)carbonyl]oxy}-1-azoniabicyclo[2.2.2]octane Bromide]
IC50 (M3 binding IC50): 2 to 10 nM

O=C(O[C@H]1C[N+]2(Cc3ccc(C(F)(F)F)o3)CCC1CC2)C1(c2ccccc2)CCCCCC1 [Example 9, (3R)-3-{[(1-Phenylcycloheptyl)carbonyl]oxy}-1-{[5-(trifluoromethyl)-2-furyl]methyl}-1-azoniabicyclo[2.2.2]octane Bromide]
IC50 (M3 binding IC50): > 10 nM

O=C(C[N+]12CCC(CC1)[C@@H](OC(=O)C1(c3ccccc3)CCCCCC1)C2)c1cccc(F)c1 [Example 19, (3R)-1-[2-(3-Fluorophenyl)-2-oxoethyl]-3-{[(1-phenylcycloheptyl)carbonyl]oxy}-1-azoniabicyclo[2.2.2]octane Bromide]
IC50 (M3 binding IC50): < 2 nM

COc1ccc(CC[N+]23CCC(CC2)[C@@H](OC(=O)C2(c4ccccc4)CCCCCC2)C3)cc1Cl [Example 38, (3R)-1-[2-(3-Chloro-4-methoxyphenyl)ethyl]-3-{[(1-phenylcycloheptyl)carbonyl]oxy}-1-azoniabicyclo[2.2.2]octane Bromide]
IC50 (M3 binding IC50): < 2 nM

O=C(O[C@H]1C[N+]2(CCCOc3ccccc3)CCC1CC2)C1(c2ccccc2)CCCCCC1 [Example 3, (3R)-1-(3-Phenoxypropyl)-3-{[(1-phenylcycloheptyl)carbonyl]oxy}-1-azoniabicyclo[2.2.2]octane Bromide]
IC50 (M3 binding IC50): < 2 nM
IC50 (pIC50): 0.0501 nM
